Patent publication EP0426804B1, “2-(2-HYDROXY-3-PHENOXYPROPYLAMINO)-ETHOXYBENZENE DERIVATIVES” (IMPERIAL CHEMICAL INDUSTRIES PLC, priority 1989, dated 1990)

What was measured:
[1] = test (d): metabolic rate (oxygen consumption) in cold adapted rats; type: in vivo; details: at 1mgkg⁻¹ p.o.
BAT mitochondria = assay: test (b): GDP binding in BAT mitochondria of cold adapted rats, relative to isoprenaline; type: in vivo; details: dose necessary to produce 50% of the isoprenaline (1 mg/kg) effect on GDP binding
[2] = test (c): heart rate in rats adapted to a thermoneutral environment (D500 dose and selectivity index); details: ratio of D₅₀₀ to ED₅₀ in test (b)

Structure (SMILES)	metabolic rate [1]	ED₅₀ (BAT mitochondria)	SI ([2]; oral)	SI ([2]; route not stated)
CCCC(=O)Cc1ccc(OCCNCC(O)COc2ccccc2)cc1 (stereo not shown) [Example 5, 1-[4-(2-(2-hydroxy-3-phenoxypropylamino)ethoxy)phenyl]pentan-2-one]	6.6 ml O₂ min ⁻¹Kg^.75	0.23 mgkg⁻¹	> 100	
CC(C)NCC(O)c1ccc(O)c(O)c1 (stereo not shown) [isoprenaline, reference compound]				0.06
